Values of other authors in patent publication US20040054001A1, “Fumaric acid derivatives as nf-kappab inhibitors” (priority 2001, published 2004).

Test system: Ehrlich ascites tumour
Conditions: mice; cited from earlier work

O=C(O)/C=C/C(=O)O [fumaric acid]
growth of the Ehrlich ascites tumour: inhibits
